Numbered stars: 1 amine (or outer) side, 2 acyl side, 3 side chain; on linkers, the order of the positions; unused ones are H or OH. Square brackets hold non-standard residues; d marks the D form. Peptide text beside a SMILES is read from it. * marks the point of attachment. Tyr(3,5-(NO2)2) = N[C@@H](Cc1cc([N+](=O)[O-])c(O)c([N+](=O)[O-])c1)C(=O)O; X1 = CC[C@H](C)[C@H](N)C(=O)NC(=O)[C@H](Cc1ccc([N+](=O)[O-])cc1)N*; Tyr(3-NO2) = N[C@@H](Cc1ccc(O)c([N+](=O)[O-])c1)C(=O)O; X2 = CCOP(=O)(Cc1ccc(C[C@H](N[*:1])C(=O)[*:2])cc1)OCC; Phe(4-NO2) = N[C@@H](Cc1ccc([N+](=O)[O-])cc1)C(=O)O; Phe(4-N3) = [N-]=[N+]=Nc1ccc(C[C@H](N)C(=O)O)cc1; Phe(3,4-(OMe)2) = COc1ccc(C[C@H](N)C(=O)O)cc1OC; Phe(3,4-Cl2) = N[C@@H](Cc1ccc(Cl)c(Cl)c1)C(=O)O; Phe(4-COOH) = N[C@@H](Cc1ccc(C(=O)O)cc1)C(=O)O; Phe(4-tBu) = CC(C)(C)c1ccc(C[C@H](N)C(=O)O)cc1; Phe(3-CN) = N#Cc1cccc(C[C@H](N)C(=O)O)c1; Phe(3-OMe) = COc1cccc(C[C@H](N)C(=O)O)c1; Phe(4-CN) = N#Cc1ccc(C[C@H](N)C(=O)O)cc1; Phe(4-Cl) = N[C@@H](Cc1ccc(Cl)cc1)C(=O)O; Phe(4-F) = N[C@@H](Cc1ccc(F)cc1)C(=O)O; Phe(4-I) = N[C@@H](Cc1ccc(I)cc1)C(=O)O; 1Nal = N[C@@H](Cc1cccc2ccccc12)C(=O)O; Bta = N[C@@H](Cc1csc2ccccc12)C(=O)O; Oxazole4CO(2-Me) = Cc1nc(C(=O)*)co1; hTyr = N[C@@H](CCc1ccc(O)cc1)C(=O)O; hPhe = N[C@@H](CCc1ccccc1)C(=O)O; 3Pal = N[C@@H](Cc1cccnc1)C(=O)O; 4Pal = N[C@@H](Cc1ccncc1)C(=O)O; Cha = N[C@@H](CC1CCCCC1)C(=O)O; Nle = CCCC[C@H](N)C(=O)O; 2Furoyl = O=C(c1ccco1)*
biological target: T1, Proteinase-activated receptor 2 (Homo sapiens, UniProt P55085); assay: Agonist activity at PAR2 expressed in human HT29 cells assessed as intracellular calcium release; type: functional, cell-based, HT-29
T1 sequence (P55085 whole entry): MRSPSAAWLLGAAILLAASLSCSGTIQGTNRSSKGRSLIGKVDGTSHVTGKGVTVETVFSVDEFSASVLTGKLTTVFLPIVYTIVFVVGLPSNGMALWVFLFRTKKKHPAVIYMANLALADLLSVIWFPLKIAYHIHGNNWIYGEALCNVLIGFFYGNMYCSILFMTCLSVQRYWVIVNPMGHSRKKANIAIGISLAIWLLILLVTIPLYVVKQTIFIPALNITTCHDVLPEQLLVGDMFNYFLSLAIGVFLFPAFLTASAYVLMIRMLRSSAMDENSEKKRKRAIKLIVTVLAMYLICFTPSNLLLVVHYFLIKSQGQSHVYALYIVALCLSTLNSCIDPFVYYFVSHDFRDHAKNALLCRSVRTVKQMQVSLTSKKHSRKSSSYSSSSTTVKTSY

SMILES	EC50 [µM]
CC[C@H](C)[C@H](NC(=O)[C@H](Cc1ccc(C(=O)O)cc1)NC(=O)[C@H](CCCNC(=N)N)NC(=O)CNC(=O)[C@@H](NC(=O)[C@H](CC(C)C)NC(=O)[C@@H](N)CO)[C@@H](C)CC)C(N)=O (H-SLIGR[Phe(4-COOH)]I-NH2)	5
CC[C@H](C)[C@H](NC(=O)[C@H](Cc1cccnc1)NC(=O)[C@H](CCCNC(=N)N)NC(=O)CNC(=O)[C@@H](NC(=O)[C@H](CC(C)C)NC(=O)[C@@H](N)CO)[C@@H](C)CC)C(N)=O (H-SLIGR[3Pal]I-NH2)	1.1
CC[C@H](C)[C@H](NC(=O)[C@H](Cc1ccc(Cl)c(Cl)c1)NC(=O)[C@H](CCCN=C(N)N)NC(=O)CNC(=O)[C@@H](NC(=O)[C@H](CC(C)C)NC(=O)[C@@H](N)CO)[C@@H](C)CC)C(N)=O (H-SLIGR[Phe(3,4-Cl2)]I-NH2)	0.3
CC[C@H](C)[C@H](NC(=O)[C@H](Cc1ccc(OC)c(OC)c1)NC(=O)[C@H](CCCNC(=N)N)NC(=O)CNC(=O)[C@@H](NC(=O)[C@H](CC(C)C)NC(=O)[C@@H](N)CO)[C@@H](C)CC)C(N)=O (H-SLIGR[Phe(3,4-(OMe)2)]I-NH2)	1.3
CC[C@H](C)[C@H](NC(=O)[C@H](CC(C)C)NC(=O)[C@H](CCCN=C(N)N)NC(=O)CNC(=O)[C@@H](NC(=O)[C@H](CC(C)C)NC(=O)[C@@H](N)CO)[C@@H](C)CC)C(N)=O (H-SLIGRLI-NH2)	0.7
CC[C@H](C)[C@H](NC(=O)[C@H](Cc1cccc(OC)c1)NC(=O)[C@H](CCCNC(=N)N)NC(=O)CNC(=O)[C@@H](NC(=O)[C@H](CC(C)C)NC(=O)[C@@H](N)CO)[C@@H](C)CC)C(N)=O (H-SLIGR[Phe(3-OMe)]I-NH2)	3.3
CC[C@H](C)[C@H](N)C(=O)NC(=O)[C@H](Cc1ccc([N+](=O)[O-])cc1)NC(=O)[C@H](CCCNC(=N)N)NC(=O)CNC(=O)[C@@H](NC(=O)[C@H](CC(C)C)NC(=O)c1ccco1)[C@@H](C)CC (2Furoyl-LIGR-X1)	0.2
CC[C@H](C)[C@H](NC(=O)[C@H](CCc1ccccc1)NC(=O)[C@H](CCCNC(=N)N)NC(=O)CNC(=O)[C@@H](NC(=O)[C@H](CC(C)C)NC(=O)[C@@H](N)CO)[C@@H](C)CC)C(N)=O (H-SLIGR[hPhe]I-NH2)	1.8
CC[C@H](C)[C@H](NC(=O)[C@H](CC(C)C)NC(=O)c1ccco1)C(=O)NCC(=O)N[C@@H](CCCNC(=N)N)C(=O)N[C@@H](Cc1ccc([N+](=O)[O-])cc1)C(N)=O (2Furoyl-LIGR[Phe(4-NO2)]-NH2)	0.17
CCOP(=O)(Cc1ccc(C[C@H](NC(=O)[C@H](CCCNC(=N)N)NC(=O)CNC(=O)[C@@H](NC(=O)[C@H](CC(C)C)NC(=O)[C@@H](N)CO)[C@@H](C)CC)C(=O)N[C@H](C(N)=O)[C@@H](C)CC)cc1)OCC (H-SLIGR[X2]I-NH2)	1.3
CC[C@H](C)[C@H](NC(=O)[C@H](CC(C)C)NC(=O)[C@@H](N)CO)C(=O)NCC(=O)N[C@@H](CCCNC(=N)N)C(=O)N[C@@H](CC(C)C)C(N)=O (H-SLIGRL-NH2)	4.2
CC[C@H](C)[C@H](NC(=O)[C@H](Cc1ccc(O)c([N+](=O)[O-])c1)NC(=O)[C@H](CCCNC(=N)N)NC(=O)CNC(=O)[C@@H](NC(=O)[C@H](CC(C)C)NC(=O)[C@@H](N)CO)[C@@H](C)CC)C(N)=O (H-SLIGR[Tyr(3-NO2)]I-NH2)	1.4
CC[C@H](C)[C@H](NC(=O)[C@H](Cc1ccc(N=[N+]=[N-])cc1)NC(=O)[C@H](CCCNC(=N)N)NC(=O)CNC(=O)[C@@H](NC(=O)[C@H](CC(C)C)NC(=O)[C@@H](N)CO)[C@@H](C)CC)C(N)=O (H-SLIGR[Phe(4-N3)]I-NH2)	2.5
CC[C@H](C)[C@H](NC(=O)[C@H](Cc1ccncc1)NC(=O)[C@H](CCCNC(=N)N)NC(=O)CNC(=O)[C@@H](NC(=O)[C@H](CC(C)C)NC(=O)[C@@H](N)CO)[C@@H](C)CC)C(N)=O (H-SLIGR[4Pal]I-NH2)	1.9
CC[C@H](C)[C@H](NC(=O)[C@H](CCc1ccc(O)cc1)NC(=O)[C@H](CCCNC(=N)N)NC(=O)CNC(=O)[C@@H](NC(=O)[C@H](CC(C)C)NC(=O)[C@@H](N)CO)[C@@H](C)CC)C(N)=O (H-SLIGR[hTyr]I-NH2)	3
CC[C@H](C)[C@H](NC(=O)[C@H](Cc1cccc(C#N)c1)NC(=O)[C@H](CCCNC(=N)N)NC(=O)CNC(=O)[C@@H](NC(=O)[C@H](CC(C)C)NC(=O)[C@@H](N)CO)[C@@H](C)CC)C(N)=O (H-SLIGR[Phe(3-CN)]I-NH2)	1.7
CC[C@H](C)[C@H](NC(=O)[C@H](Cc1cc([N+](=O)[O-])c(O)c([N+](=O)[O-])c1)NC(=O)[C@H](CCCNC(=N)N)NC(=O)CNC(=O)[C@@H](NC(=O)[C@H](CC(C)C)NC(=O)[C@@H](N)CO)[C@@H](C)CC)C(N)=O (H-SLIGR[Tyr(3,5-(NO2)2)]I-NH2)	1.4
CC[C@H](C)[C@H](NC(=O)[C@H](CC(C)C)NC(=O)[C@@H](N)CO)C(=O)NCC(=O)N[C@@H](CCCNC(=N)N)C(=O)N[C@@H](CC(C)C)C(=O)N[C@@H](CCc1ccccc1)C(N)=O (H-SLIGRL[hPhe]-NH2)	1
CC[C@H](C)[C@H](NC(=O)[C@H](Cc1ccc(C(C)(C)C)cc1)NC(=O)[C@H](CCCNC(=N)N)NC(=O)CNC(=O)[C@@H](NC(=O)[C@H](CC(C)C)NC(=O)[C@@H](N)CO)[C@@H](C)CC)C(N)=O (H-SLIGR[Phe(4-tBu)]I-NH2)	0.6
CC[C@H](C)[C@H](NC(=O)[C@H](CC(C)C)NC(=O)[C@@H](N)CO)C(=O)NCC(=O)N[C@@H](CCCNC(=N)N)C(=O)N[C@@H](CC(C)C)C(=O)N[C@@H](Cc1cccc2ccccc12)C(N)=O (H-SLIGRL[1Nal]-NH2)	1.1

Other lines, results leading:

EC50 [µM]	SMILES
1	CC[C@H](C)[C@H](NC(=O)[C@H](Cc1ccccc1)NC(=O)[C@H](CCCNC(=N)N)NC(=O)CNC(=O)[C@@H](NC(=O)[C@H](CC(C)C)NC(=O)[C@@H](N)CO)[C@@H](C)CC)C(N)=O (H-SLIGRFI-NH2)
0.6	CC[C@H](C)[C@H](NC(=O)[C@H](CC(C)C)NC(=O)[C@@H](N)CO)C(=O)NCC(=O)N[C@@H](CCCNC(=N)N)C(=O)N[C@@H](Cc1ccc([N+](=O)[O-])cc1)C(N)=O (H-SLIGR[Phe(4-NO2)]-NH2)
1.2	CC[C@H](C)[C@H](NC(=O)[C@H](CC(C)C)NC(=O)[C@@H](N)CO)C(=O)NCC(=O)N[C@@H](CCCNC(=N)N)C(=O)N[C@@H](CC(C)C)C(=O)N[C@@H](CC(C)C)C(N)=O (H-SLIGRLL-NH2)
0.3	CC[C@H](C)[C@H](NC(=O)[C@H](Cc1csc2ccccc12)NC(=O)[C@H](CCCNC(=N)N)NC(=O)CNC(=O)[C@@H](NC(=O)[C@H](CC(C)C)NC(=O)[C@@H](N)CO)[C@@H](C)CC)C(N)=O (H-SLIGR[Bta]I-NH2)
0.9	CC[C@H](C)[C@H](NC(=O)[C@H](Cc1ccc(C#N)cc1)NC(=O)[C@H](CCCNC(=N)N)NC(=O)CNC(=O)[C@@H](NC(=O)[C@H](CC(C)C)NC(=O)[C@@H](N)CO)[C@@H](C)CC)C(N)=O (H-SLIGR[Phe(4-CN)]I-NH2)
0.6	CC[C@H](C)[C@H](NC(=O)[C@H](Cc1ccc(I)cc1)NC(=O)[C@H](CCCNC(=N)N)NC(=O)CNC(=O)[C@@H](NC(=O)[C@H](CC(C)C)NC(=O)[C@@H](N)CO)[C@@H](C)CC)C(N)=O (H-SLIGR[Phe(4-I)]I-NH2)
3.6	CC[C@H](C)[C@H](NC(=O)[C@H](CC(C)C)NC(=O)[C@@H](N)CO)C(=O)NCC(=O)N[C@@H](CCCNC(=N)N)C(=O)N[C@@H](CC(C)C)C(=O)N[C@@H](CC1CCCCC1)C(N)=O (H-SLIGRL[Cha]-NH2)
0.32	CC[C@H](C)[C@H](NC(=O)[C@H](CC(C)C)NC(=O)c1coc(C)n1)C(=O)NCC(=O)N[C@@H](CCCNC(=N)N)C(=O)N[C@@H](Cc1ccc(I)cc1)C(N)=O ({Oxazole4CO(2-Me)}-LIGR[Phe(4-I)]-NH2)
1.2	CCCC[C@H](NC(=O)[C@H](CC(C)C)NC(=O)[C@H](CCCNC(=N)N)NC(=O)CNC(=O)[C@@H](NC(=O)[C@H](CC(C)C)NC(=O)[C@@H](N)CO)[C@@H](C)CC)C(N)=O (H-SLIGRL[Nle]-NH2)
2	CC[C@H](C)[C@H](NC(=O)[C@H](CC(C)C)NC(=O)[C@@H](N)CO)C(=O)NCC(=O)N[C@@H](CCCNC(=N)N)C(=O)N[C@@H](CC(C)C)C(=O)N[C@@H](Cc1ccc(F)cc1)C(N)=O (H-SLIGRL[Phe(4-F)]-NH2)
2.8	CC[C@H](C)[C@H](NC(=O)[C@H](COc1ccc([N+](=O)[O-])cc1)NC(=O)[C@H](CCCNC(=N)N)NC(=O)CNC(=O)[C@@H](NC(=O)[C@H](CC(C)C)NC(=O)[C@@H](N)CO)[C@@H](C)CC)C(N)=O
0.4	CC[C@H](C)[C@H](NC(=O)[C@H](Cc1ccc(O)cc1)NC(=O)[C@H](CCCN=C(N)N)NC(=O)CNC(=O)[C@@H](NC(=O)[C@H](CC(C)C)NC(=O)[C@@H](N)CO)[C@@H](C)CC)C(N)=O (H-SLIGRYI-NH2)
1.2	CC[C@H](C)[C@H](NC(=O)[C@H](CC(C)C)NC(=O)[C@@H](N)CO)C(=O)NCC(=O)N[C@@H](CCCNC(=N)N)C(=O)N[C@@H](CC(C)C)C(=O)N[C@@H](Cc1ccc(O)cc1)C(N)=O (H-SLIGRLY-NH2)
0.5	CC[C@H](C)[C@H](NC(=O)[C@H](Cc1ccc(Cl)cc1)NC(=O)[C@H](CCCNC(=N)N)NC(=O)CNC(=O)[C@@H](NC(=O)[C@H](CC(C)C)NC(=O)[C@@H](N)CO)[C@@H](C)CC)C(N)=O (H-SLIGR[Phe(4-Cl)]I-NH2)
0.6	CC[C@H](C)[C@H](NC(=O)[C@H](CC(C)C)NC(=O)[C@@H](N)CO)C(=O)NCC(=O)N[C@@H](CCCNC(=N)N)C(=O)N[C@@H](CC(C)C)C(=O)N[C@@H](CCc1ccc(O)cc1)C(N)=O (H-SLIGRL[hTyr]-NH2)

Source: ChEMBL document CHEMBL1137449, “A refined agonist pharmacophore for protease activated receptor 2” (Bioorg Med Chem Lett, 2007)
